As usually defined, the viability is the share of living cells, or the viability signal relative to a control. What is called IC50 is the concentration that inhibits the measured activity by half.

Consider twelve molecules from PMC12059944, “Synthesis and Antileishmanial Evaluation of N-Phenyl-2-phenoxyacetamides Derived from Carvacrol” (ACS Omega, 2025).

The structures appear in SMILES notation. Where two headings read alike, the source gives them in different places.

The nature of data set [1]: Cytotoxicity assay in macrophage RAW 264.7 (resazurin). The data set is classed as cell-based. The following applies: mouse, RAW 264.7 macrophages, pH 7.2; RAW 264.7 cells, 200 to 1.56 μM, 48 h treatment, resazurin. The procedure:
(§1) RAW 264.7 cells were cultured in Roswell Park Memorial Institute (RPMI) medium, pH 7.2, supplemented with 10% (v/v) heat-inactivated fetal bovine serum (FBS) (Gibco), 100 μg mL^–1 penicillin (Sigma), 2 g L^–1 sodium bicarbonate, 2 mM L-glutamine, and 25 mM HEPES, and maintained at 37 °C in a humidified incubator with 5% CO2 atmosphere.[27] The cells were then seeded into sterile 96-well plates at a density of 5 × 10^4 cells/well, followed by the addition of the compounds at a concentration of 10 μM for screening, and in a range of 200 μM to 1.56 μM for the determination of the 50% cytotoxic concentration (CC50). Controls included 1% DMSO and amphotericin B at 3.125 μg mL^–1, with 48 h of treatment. Cell viability was assessed using 1 mM resazurin, with subsequent readings performed on a Spectramax spectrophotometer at wavelengths of 570 and 600 nm.
In general terms: Alamar Blue is a resazurin reagent that responds to reducing activity.

Data set [2] relates to Vero cells. Briefly: Cytotoxicity assay in Vero cells (MTT). It counts as cell-based, African green monkey (Cercopithecus aethiops). The procedure:
(§2) The Vero cell (ATCC, CCL-81) was cultured in Dulbecco’s modified Eagle medium (DMEM), pH 7.3, supplemented with 10% FBS (v/v) and a penicillin/streptomycin solution (0.1 mg mL^–1/100 U mL^–1). The cells were incubated at 37 °C in a humidified atmosphere with 5% CO2. The MTT reduction assay (3-(4,5-dimethylthiazol-2-yl)-2,5-diphenyltetrazolium bromide) was adapted from Mosmann[43] to evaluate cytotoxicity. For this assay, 1 × 10^4 cells per well were seeded in 96-well plates and incubated overnight until reaching approximately 80% confluence. Wells were treated with different compound concentrations (500 to 7.8 μM) in triplicate. The culture medium was replaced with 0.5 mg mL^–1 MTT solution, and the plate was incubated for 3 h. The resulting formazan crystals were solubilized in DMSO, and absorbance was measured using a Spectramax spectrophotometer at a wavelength of 540 nm to assess cell viability.

Data set [3] relates to RAW 264.7 macrophages. Briefly: Cytotoxicity assay in macrophage RAW 264.7 (resazurin). The data set is classed as cell-based. The following applies: RAW 264.7 cells, highest concentration (200 μM), 48 h. The protocol: as §1
Data set [4] has as its system L. braziliensis MHOM/BR/75/M2904. Nature of the data set: In vitro infection of RAW 264.7 macrophages by L. braziliensis-GFP (leishmanicidal screening). The data set is classed as cell-based. The following applies: Leishmania braziliensis; for viability at 10 µM: RAW264.7, 48 h, read-out: parasite viability; for IC50: RAW264.7, suggested from the 10 μM screening, L. braziliensis in RAW 264.7 macrophages, 48 h. The procedure: L. braziliensis MHOM/BR/75/M2904 was cultured in Grace’s insect medium (pH 6.5) supplemented with 10% (v/v) heat-inactivated fetal bovine serum (FBS) (Gibco), 100 μg mL^–1 penicillin (Sigma), and 2 mM L-glutamine, maintained at 25 °C in a B.O.D. incubator. Using the stationary phase culture on the seventh day, 2.0 × 10^6Leishmania/well were transferred to a 96-well plate containing 1.0 × 10^5 preadhered macrophages/well, following an adapted infection protocol.[44] After applying the compounds at a concentration of 10 μM, 1% DMSO and amphotericin B (3.125 μg mL^–1) were used as controls. Treatments were conducted for 48 h, followed by macrophage lysis using 0.1% SDS solution, which was subsequently neutralized with complete Grace’s medium. To recover promastigote forms, the plate was incubated for 5 days. Fluorescence was measured using a Spectramax fluorometer, with excitation at 490 nm and emission at 520 nm.

Data set [5] is described as follows: Cytotoxicity assay in Vero cells (MTT). The data set is classed as cell-based, African green monkey (Cercopithecus aethiops). Conditions: African green monkey, Vero cells (ATCC CCL-81), pH 7.3, MTT, 1 × 10^4 cells per well, 500 to 7.8 μM. The procedure: as §2
For data set [6], the system named is murine peritoneal macrophages. The arrangement: method as in PMID 36375398. Conditions: cited from earlier work.
Data set [7] has as its system human monocyte cell line. Also noted: method as in PMID 32272211. Conditions: 48 h treatment, cited from earlier work.
Data set [8] has as its system Vero cells. Also noted: method as in PMID 29877104. The following applies: 5 × 10^4 cells per well, cited from earlier work.
For data set [9], the system named is L. amazonensis. The arrangement: method as in PMID 32272211. The following applies: L. amazonensis amastigote stage, 48 h treatment, cited from earlier work.
Data set [10] deals with Vero cells. The arrangement: method as in earlier work. The following applies: 15 μg mL^–1 (equivalent to 16.23 μM), neutral red cytotoxicity assay; cited from earlier work.
[11] abbreviates: all tested concentrations (500 to 7.8 μM).
Setting [12] is: high concentrations (500 and 250 μM).
Setting [13] is: converted from μg mL^–1, read-out: CC50 (equivalent).

In data set [1], `Cc1ccc(C(C)C)cc1OCC(=O)Nc1cccc(Cl)c1` [Compound 2, N-(3-Chlorophenyl)-2-(5-isopropyl-2-methylphenoxy)acetamide] displayed a CC50 at 48 h above 200 µM. For the same molecule, the survival rate entry in data set [2] (setting [11]) is “above 50%”.

`Cc1ccc(C(C)C)cc1OCC(=O)Nc1cccc(Br)c1` [Compound 5, N-(3-Bromophenyl)-2-(5-isopropyl-2-methylphenoxy)acetamide] showed a CC50 at 48 h in data set [1] above 200 µM. Further, the “cell viability at the highest concentration compared to the control” value (from here on “cell viability … compared to the control”) in data set [3] is reported as “no significant differences”. Moreover, the survival rate entry in data set [2] (setting [11]) is reported as “above 50%”. Further, in [4], the viability at 10 µM is around 50% and the IC50 was around 10 µM.

On to `Cc1ccc(C(C)C)cc1OCC(=O)Nc1ccc(Br)cc1` [Compound 6, N-(4-Bromophenyl)-2-(5-isopropyl-2-methylphenoxy)acetamide], for which the CC50 at 48 h in data set [1] is above 200 µM. Moreover, the “cell viability … compared to the control” value in data set [3] was “no significant differences”. The same molecule yielded a CC50 in data set [5] of 182 µM. Besides, the survival rate entry in data set [2] (setting [12]) was “below 50%”.

Regarding `Cc1ccc(C(C)C)cc1OCC(=O)Nc1ccccc1F` [Compound 7, N-(2-Fluorophenyl)-2-(5-isopropyl-2-methylphenoxy)acetamide], in data set [1], the CC50 at 48 h is above 200 µM. The “cell viability … compared to the control” value in data set [3] is on record as “no significant differences”. For the same molecule, the survival rate result in data set [2] (setting [11]) is reported as “above 50%”. Also, in data set [4], the viability at 10 µM was around 50% and the IC50 is around 10 µM.

Consider `Cc1ccc(C(C)C)cc1O` [carvacrol], for which the CC50 in data set [6] (24 h treatment, converted from μg mL^–1, read-out: CC50 (equivalent)) was 505 µM; in [6] (24 h treatment), 75.91 μg mL^–1; in data set [6] (72 h treatment, converted from μg mL^–1, read-out: CC50 (equivalent)), 268 µM; in [6] (72 h treatment) it was 40.23 μg mL^–1; in data set [7] (setting [13]), 427 µM; in [7] it was 64.10 μg mL^–1. Moreover, the CC50 in data set [8] (setting [13]) was 572 µM; in data set [8], 86 ± 1.41 μg mL^–1. Also, the IC50 in [9] (converted from μg mL^–1, read-out: IC50 (equivalent)) was around 182 µM; in data set [9] it was “approximately 27.40 μg mL^–1”.

`Cc1ccc(C(C)C)cc1OCC(=O)Nc1ccc(F)cc1` [Compound 9, N-(4-Fluorophenyl)-2-(5-isopropyl-2-methylphenoxy)acetamide] yielded a CC50 at 48 h in data set [1] above 200 µM. Besides, the survival rate entry in data set [2] (setting [11]) is recorded as “above 50%”.

Consider `Cc1ccc(C(C)C)cc1OCC(=O)Nc1ccccc1Cl` [Compound 1, N-(2-Chlorophenyl)-2-(5-isopropyl-2-methylphenoxy)acetamide], for which the CC50 at 48 h in data set [1] was above 200 µM. Moreover, in data set [3], the “cell viability … compared to the control” value is recorded as “no significant differences”. In data set [5], this molecule had a CC50 of 200 µM. In data set [2] (setting [12]), the survival rate result is on record as “below 50%”.

The molecule `Cc1ccc(C(C)C)cc1OCC(=O)Nc1ccccc1Br` [Compound 4, N-(2-Bromophenyl)-2-(5-isopropyl-2-methylphenoxy)acetamide] had a CC50 at 48 h in data set [1] above 200 µM. In data set [5], this molecule returned a CC50 of 372 µM. In addition, the survival rate entry in data set [2] (setting [12]) is recorded as “below 50%”.

With `Cc1ccc(C(C)C)cc1OCC(=O)Nc1cccc(F)c1` [Compound 8, N-(3-Fluorophenyl)-2-(5-isopropyl-2-methylphenoxy)acetamide], the CC50 at 48 h in data set [1] was above 200 µM. In data set [5], this molecule yielded a CC50 of 337 µM. The survival rate entry in [2] (setting [12]) is recorded as “below 50%”.

Regarding `Cc1ccc(C(C)C)cc1OCC(=O)Nc1ccccc1` [Compound 10, 2-(5-Isopropyl-2-methylphenoxy)-N-phenylacetamide], the CC50 at 48 h in data set [1] is above 200 µM. In data set [2] (setting [11]), the survival rate entry is on record as “above 50%”.

As for `Cc1ccc(C(C)C)cc1OCC(=O)Nc1ccc(Cl)cc1` [Compound 3, N-(4-Chlorophenyl)-2-(5-isopropyl-2-methylphenoxy)acetamide], the CC50 at 48 h in [1] was above 200 µM. The same molecule yielded a CC50 in data set [5] of 449 µM. For the same molecule, the survival rate result in data set [2] (setting [12]) is “below 50%”.

`C[C@@H]1[C@H](O)[C@@H](C)/C=C/C=C/C=C/C=C/C=C/C=C/C=C/[C@H](O[C@@H]2O[C@H](C)[C@@H](O)[C@H](N)[C@@H]2O)C[C@@H]2O[C@](O)(C[C@@H](O)C[C@@H](O)[C@H](O)CC[C@@H](O)C[C@@H](O)CC(=O)O[C@H]1C)C[C@H](O)[C@H]2C(=O)O` [amphotericin B]: the toxicity result in [10] is reported as “over 70%”.
